# Measurements as given in patent US6743809B2, “Indole Derivatives useful for the treatment of CNS disorders” (H. Lundbeck A/S, priority 2000, dated 2004).
# Biological target: T1, human cloned dopamine D4.2 receptors (Homo sapiens, UniProt P21917, DEL265-296)
# T1 construct: expressed in transfected cells; host or cells: CHO cells
# T1 sequence (P21917 with tags, fused parts or gaps DEL265-296): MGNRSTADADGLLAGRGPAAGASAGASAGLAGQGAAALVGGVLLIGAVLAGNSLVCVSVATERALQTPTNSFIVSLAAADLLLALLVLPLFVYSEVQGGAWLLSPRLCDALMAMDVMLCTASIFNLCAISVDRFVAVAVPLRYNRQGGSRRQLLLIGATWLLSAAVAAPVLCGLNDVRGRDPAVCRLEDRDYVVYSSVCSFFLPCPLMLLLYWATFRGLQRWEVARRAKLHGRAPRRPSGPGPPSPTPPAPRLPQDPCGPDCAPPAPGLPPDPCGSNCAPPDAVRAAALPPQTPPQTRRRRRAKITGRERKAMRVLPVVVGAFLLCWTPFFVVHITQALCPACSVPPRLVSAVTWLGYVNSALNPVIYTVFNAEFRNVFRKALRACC
# Test: Inhibition of the binding of [3H]YM-09151-2 to human dopamine D4 receptors
# Conditions: 50 nM compound; [3H]YM-09151-2 0.06 nM; membranes of CHO-cells
# Protocol: Inhibition of the Binding of [^3H]YM-09151-2 to Human Dopamine D4 Receptors
# By this method, the inhibition by drugs of the binding of [^3H]YM-09151-2 (0.06 nM) to membranes of human cloned dopamine D4.2 receptors expressed in CHO-cells is determined in vitro. The method is modified from NEN Life Science Products, Inc., technical data certificate PC2533-10/96.
Molecule,% inhibition of binding at 50 nM,inhibition at 0.05 µM
3-(1-{2-[5-(Isobutanolamino)-2-methylphenyl]ethyl}piperidin-4-yl)-5-fluoro-1H-indole [Compound 3f],96%,–
"CC(=O)Nc1ccc(C)c(CCN2CCC(c3c[nH]c4ccc(F)cc34)CC2)c1 [Compound 3a, 3-(1-{2-[5-(Acetylamino)-2-methylphenyl]ethyl}piperidin-4-yl)-5-fluoro-1H-indole]",–,83%
"Cc1ccc(NC(=O)C2CCOCC2)cc1CCN1CCC(c2c[nH]c3ccc(F)cc23)CC1 [Compound 3aa, 3-(1-{2-[2-Methyl-5-(tetrahydropyran-4-ylmethanoylamino)phenyl]ethyl}piperidin-4-yl)-5-fluoro-1H-indole]",–,96%
"Cc1ccc(NC(=O)c2ccc(Cl)cc2)cc1CCN1CCC(c2c[nH]c3c(Cl)cccc23)CC1 [Compound 3ab, 3-(1-{2-[5-(4-Chlorobenzoylamino)-2-methylphenyl]ethyl}piperidin-4-yl)-7-chloro-1H-indole]",–,79%
"Cc1ccc(NC(=O)CCC2CCCCC2)cc1CCN1CCC(c2c[nH]c3ccc(F)cc23)CC1 [Compound 3ac, 3-(1-{2-[5-(3-Cyclohexylpropanoylamino)-2-methylphenyl]ethyl}piperidin-4-yl)-5-fluoro-1H-indole]",–,97%
"Cc1ccc(NC(=O)CCc2ccccc2)cc1CCN1CCC(c2c[nH]c3c(Cl)cccc23)CC1 [Compound 3ad, 3-[1-(2-{5-[(3-Phenylpropanoyl)amino]-2-methylphenyl}ethyl)piperidin-4-yl]-7-chloro-1H-indole]",–,83%
"Cc1ccc(NC(=O)Cc2ccccc2)cc1CCN1CCC(c2c[nH]c3c(Cl)cccc23)CC1 [Compound 3ae, 3-[1-(2-{5-[(2-Phenylethanoyl)amino]-2-methylphenyl}ethyl)piperidin-4-yl]-7-chloro-1H-indole]",–,89%
"Cc1ccc(C(=O)Nc2ccc(C)c(CCN3CCC(c4c[nH]c5c(Cl)cccc45)CC3)c2)cc1 [Compound 3af, 3-(1-{2-[2-Methyl-5-(4-methylbenzoylamino)phenyl]ethyl}piperidin-4-yl)-7-chloro-1H-indole]",–,90%
"Cc1ccc(NC(=O)C2CC2)cc1CCN1CCC(c2c[nH]c3c(Cl)cccc23)CC1 [Compound 3ag, 3-(1-{2-[5-(Cyclopropylmethanoylamino)-2-methylphenyl]ethyl}piperidin-4-yl)-7-chloro-1H-indole]",–,95%
"Cc1ccc(NC(=O)c2cccs2)cc1CCN1CCC(c2c[nH]c3ccc(Cl)cc23)CC1 [Compound 3b, 3-(1-{2-[2-Methyl-5-(thiophen-2-ylmethanoylamino)phenyl]ethyl}piperidin-4-yl)-5-chloro-1H-indole]",–,86%
"COc1cccc(C(=O)Nc2ccc(C)c(CCN3CCC(c4c[nH]c5ccc(Cl)cc45)CC3)c2)c1 [Compound 3c, 3-(1-{2-[2-Methyl-5-(3-methoxybenzoylamino)phenyl]ethyl}piperidin-4-yl)-5-chloro-1H-indole]",–,68%
"Cc1ccc(NC(=O)C2CC2)cc1CCN1CCC(c2c[nH]c3ccc(F)cc23)CC1 [Compound 3d, 3-(1-{2-[5-(Cyclopropylmethanoylamino)-2-methylphenyl]ethyl}piperidin-4-yl)-5-fluoro-1H-indole]",–,89%
"Cc1ccc(NC(=O)c2cccs2)cc1CCN1CCC(c2c[nH]c3ccc(F)cc23)CC1 [Compound 3e, 3-(1-{2-[2-Methyl-5-(thiophen-2-ylmethanoylamino)phenyl]ethyl}piperidin-4-yl)-5-fluoro-1H-indole]",–,89%
"Cc1ccc(NC(=O)C(C)(C)C)cc1CCN1CCC(c2c[nH]c3ccc(F)cc23)CC1 [Compound 3g, 3-(1-{2-[2-Methyl-5-(pivaloylamino)phenyl]ethyl}piperidin-4-yl)-5-fluoro-1H-indole]",–,86%
"CCCCCC(=O)Nc1ccc(C)c(CCN2CCC(c3c[nH]c4ccc(F)cc34)CC2)c1 [Compound 3h, 3-(1-{2-[5-(Hexanoylamino)-2-methylphenyl]ethyl}piperidin-4-yl)-5-fluoro-1H-indole]",–,83%

# Further lines, results first:
% inhibition of binding at 50 nM,inhibition at 0.05 µM,Molecule
–,90%,"COc1cccc(C(=O)Nc2ccc(C)c(CCN3CCC(c4c[nH]c5ccc(F)cc45)CC3)c2)c1 [Compound 3j, 3-(1-{2-[5-(3-Methoxybenzoylamino)-2-methylphenyl]ethyl}piperidin-4-yl)-5-fluoro-1H-indole]"
–,91%,"Cc1ccc(NC(=O)c2cccnc2)cc1CCN1CCC(c2c[nH]c3ccc(F)cc23)CC1 [Compound 3k, 3-(1-{2-[2-Methyl-5-(pyridin-3-ylmethanoylamino)phenyl]ethyl}piperidin-4-yl)-5-fluoro-1H-indole]"
–,74%,"Cc1ccc(NC(=O)CCc2ccccc2)cc1CCN1CCC(c2c[nH]c3ccc(F)cc23)CC1 [Compound 3l, 3-(1-{2-[2-Methyl-5-(3-phenylpropanoylamino)phenyl]ethyl}piperidin-4-yl)-5-fluoro-1H-indole]"
–,81%,"Cc1ccc(C(=O)Nc2ccc(C)c(CCN3CCC(c4c[nH]c5ccc(F)cc45)CC3)c2)cc1 [Compound 3m, 3-(1-{2-[2-Methyl-5-(4-methylbenzoylamino)phenyl]ethyl}piperidin-4-yl)-5-fluoro-1H-indole]"
–,76%,"Cc1ccc(NC(=O)N(C)c2ccccc2)cc1CCN1CCC(c2c[nH]c3cc(Cl)ccc23)CC1 [Compound 3n, 3-(1-{2-[2-Methyl-5-(3-Methyl-3-phenylureido)phenyl]ethyl}piperidin-4-yl)-6-chloro-1H-indole]"
–,99%,"Cc1ccc(NC(=O)C2CC2)cc1CCN1CCC(c2c[nH]c3cc(Cl)ccc23)CC1 [Compound 3o, 3-(1-{2-[5-(Cyclopropylmethanoylamino)-2-methylphenyl]ethyl}piperidin-4-yl)-6-chloro-1H-indole]"
–,92%,"Cc1ccc(NC(=O)c2cccs2)cc1CCN1CCC(c2c[nH]c3cc(Cl)ccc23)CC1 [Compound 3p, 3-(1-{2-[2-Methyl-5-(thiophen-2-ylmethanoylamino)phenyl]ethyl}piperidin-4-yl)-6-chloro-1H-indole]"
–,97%,"Cc1ccc(NC(=O)C(C)C)cc1CCN1CCC(c2c[nH]c3cc(Cl)ccc23)CC1 [Compound 3q, 3-(1-{2-[5-(Isobutanoylamino)-2-methylphenyl]ethyl}piperidin-4-yl)-6-chloro-1H-indole]"
–,88%,"COc1cccc(C(=O)Nc2ccc(C)c(CCN3CCC(c4c[nH]c5cc(Cl)ccc45)CC3)c2)c1 [Compound 3r, 3-(1-{2-[5-(3-Methoxybenzoylamino)-2-methylphenyl]ethyl}piperidin-4-yl)-6-chloro-1H-indole]"
–,92%,"Cc1ccc(NC(=O)c2cccnc2)cc1CCN1CCC(c2c[nH]c3cc(Cl)ccc23)CC1 [Compound 3s, 3-(1-{2-[2-Methyl-5-(pyridin-3-ylmethanoylamino)phenyl]ethyl}piperidin-4-yl)-6-chloro-1H-indole]"
–,75%,"COc1ccc(CC(=O)Nc2ccc(C)c(CCN3CCC(c4c[nH]c5cc(Cl)ccc45)CC3)c2)cc1 [Compound 3t, 3-[1-(2-{5-[2-(4-Methoxyphenyl)ethanoylamino]-2-methylphenyl}ethyl)piperidin-4-yl]-6-chloro-1H-indole]"
